Laboratory results taken from patent publication US11046658B2, “Aminopyrazine derivatives as PI3K-γ inhibitors” (Incyte Corporation, priority 2018, dated 2021).
Where a name gives a salt, the structure may show the parent alone. Read-outs that look alike come from different tables or passages of the source.

System: Phosphorylated Ribosomal Protein S6 (RPS6) in THP-1 cells
Assay: THP-1 RPS6 ELISA Assay
Format: cell-based, Human
Settings: Homo sapiens, THP-1 cells, 10 nM MCP-1, read-out: PI3Kγ_THP1_RPS6_ELISA IC50
Procedure: To measure the Phosphorylated Ribosomal Protein S6 (RPS6) in cell lysates, THP-1 cells (Human Acute Monocytic Leukemia) are purchased from ATCC (Manassas, Va.) and maintained in RPMI with 10% FBS (Gibco/Life Technologies, Carlsbad, Calif.). For the assay, THP-1 cells are serum starved overnight in RPMI, then plated in RPMI (2×10^5 cells/well in 90 μL) into 96-well flat-bottom tissue culture treated plates (Corning, Corning, N.Y.), in the presence or absence of a concentration range of test compounds. Covered plates are incubated for 2 hours at 37° C., 5% CO2 then treated with or without 10 nM MCP-1(MYBioSource, San Diego, Calif.) for 15 minutes at 37° C., 5% CO2. Plates are centrifuged at 1600 RPM and supernatants are removed. Cells are lysed in Lysis Buffer (Cell Signaling, Danvers, Mass.) with Protease Inhibitor (Calbiochem/EMD, Germany), PMSF (Sigma, St Louis Mo.), HALTS (Thermo Fisher, Rockford, Ill.) for 30 min on wet ice. Cell lysates are frozen at −80 OC before testing. The lysates are tested in the Human/Mouse/Rat Phospho-RPS6 ELISA (R&D Systems, Inc. Minn, Minn.). The plate is measured using a microplate reader (SpectraMax M5—Molecular Devices, LLC Sunnyvale, Calif.) set to 450 nm with a wavelength correction of 540. IC50 determination is performed by fitting the curve of inhibitor percent inhibition versus the log of the inhibitor concentration using the GraphPad Prism 5.0 software.

[1] = Table A4, cells given with + symbol

Question: For `Cc1ccc(C(O)(C(N)=O)C(F)(F)F)cc1-c1cnc(N)c(C(=O)NC23CCC(C#N)(C2)C3)n1` (centres unmarked) [Example 24, 3-amino-6-(5-(3-amino-1,1,1-trifluoro-2-hydroxy-3-oxopropan-2-yl)-2-methylphenyl)-N-(4-cyanobicyclo[2.1.1]hexan-1-yl)pyrazine-2-carboxamide trifluoroacetate], which IC50 (Table A1) is on record?
Answer: Its IC50 is under 100 nM.

Question: With `Cc1ccc(C(O)(CNC(=O)CC#N)C(F)(F)F)cc1-c1cnc(N)c(C(=O)NC(C)C)n1` (centres unmarked) [Example 42, 3-Amino-6-(5-(3-(2-cyanoacetamido)-1,1,1-trifluoro-2-hydroxypropan-2-yl)-2-methylphenyl)-N-isopropylpyrazine-2-carboxamide trifluoroacetate] as the compound, how does the IC50 (Table A1) read?
Answer: The IC50 was under 500 nM.

Question: With `COCC#Cc1nc(-c2cc(C(O)(C(N)=O)C(F)(F)F)ccc2C)cnc1N` (centres unmarked) [Example 47, 2-(3-(5-amino-6-(3-methoxyprop-1-ynyl)pyrazin-2-yl)-4-methylphenyl)-3,3,3-trifluoro-2-hydroxypropanamide trifluoroacetate] as the compound, how does the IC50 (Table A2) read?
Answer: The IC50 was under 100 nM.

Question: Which IC50 (Table A2) does the source give for `Cc1ccc(C(O)(C(N)=O)C(F)(F)F)cc1-c1cnc(N)c(C#Cc2cccc(F)c2)n1` (centres unmarked) [Example 61, 2-(3-(5-amino-6-((3-fluorophenyl)ethynyl)pyrazin-2-yl)-4-methylphenyl)-3,3,3-trifluoro-2-hydroxypropanamide] here?
Answer: Its IC50 is under 100 nM.

Question: How did the IC50 (Table A4) turn out when `Cc1ccc(C(O)(C(N)=O)C(F)(F)F)cc1-c1cnc(N)c(N2CCN(c3ccc(C#N)cc3)CC2)n1` (centres unmarked) [Example 123, 2-(3-(5-amino-6-(4-(4-cyanophenyl)piperazin-1-yl)pyrazin-2-yl)-4-methylphenyl)-3,3,3-trifluoro-2-hydroxypropanamide trifluoroacetate] was run?
Answer: Its IC50 is under 500 nM.

Question: With `Cc1ccc(C(O)(C(N)=O)C(F)(F)F)cc1-c1cnc(N)c(C(=O)N2CCC2(C)C)n1` (centres unmarked) [Example 27, 2-(3-(5-amino-6-(2,2-dimethylazetidine-1-carbonyl)pyrazin-2-yl)-4-methylphenyl)-3,3,3-trifluoro-2-hydroxypropanamide] as the compound, how does the IC50 (Table A1) read?
Answer: Its IC50 is under 100 nM.

Question: `Cc1ccc(C(O)(C(N)=O)C(F)(F)F)cc1-c1cnc(N)c(C(=O)NC2CCOCC2)n1` (centres unmarked) [Example 2, 3-amino-6-(5-(3-amino-1,1,1-trifluoro-2-hydroxy-3-oxopropan-2-yl)-2-methylphenyl)-N-(tetrahydro-2H-pyran-4-yl)pyrazine-2-carboxamide trifluoroacetate] was tested. Which IC50 (Table A1) did it give?
Answer: The IC50 was under 100 nM.

Question: For `Cc1ccc(C(O)(C(N)=O)C(F)(F)F)cc1-c1cnc(N)c(C#CCC(C)O)n1` (centres unmarked) [Example 51, 2-(3-(5-amino-6-(4-hydroxypent-1-ynyl)pyrazin-2-yl)-4-methylphenyl)-3,3,3-trifluoro-2-hydroxypropanamide], which IC50 (Table A2) is on record?
Answer: The IC50 was under 100 nM.

Question: How did the IC50 (Table A3) turn out when `Cc1ccc(C(O)(C(N)=O)C(F)(F)F)cc1-c1cnc(N)c(-c2ccc(CO)cc2)n1` (centres unmarked) [Example 88, 2-(3-(5-amino-6-(4-(hydroxymethyl)phenyl)pyrazin-2-yl)-4-methylphenyl)-3,3,3-trifluoro-2-hydroxypropanamide trifluoroacetate] was run?
Answer: Its IC50 is under 500 nM.

Question: `Cc1ccc(C(O)(C(N)=O)C(F)F)cc1-c1cnc(N)c(C(=O)NCC2(C#N)CC2)n1` (centres unmarked) [Example 33, 3-amino-6-(5-(1-amino-3,3-difluoro-2-hydroxy-1-oxopropan-2-yl)-2-methylphenyl)-N-((1-cyanocyclopropyl)methyl)pyrazine-2-carboxamide] was tested. Which IC50 (Table A1) did it give?
Answer: Its IC50 is under 100 nM.

Question: Which IC50 (Table A1) does the source give for `Cc1ccc(C(O)(C(N)=O)C(F)(F)F)cc1-c1cnc(N)c(C(=O)N[C@@H](C)CC#N)n1` (stereo partly drawn) [Example 8, 3-amino-6-(5-(3-amino-1,1,1-trifluoro-2-hydroxy-3-oxopropan-2-yl)-2-methylphenyl)-N-((S)-1-cyanopropan-2-yl)pyrazine-2-carboxamide trifluoroacetate] here?
Answer: Its IC50 is under 100 nM.

Question: For `Cc1ccc(C(O)(C(N)=O)C(F)(F)F)cc1-c1cnc(N)c(C#CC2CCOCC2)n1` (centres unmarked) [Example 63, 2-(3-(5-amino-6-((tetrahydro-2H-pyran-4-yl)ethynyl)pyrazin-2-yl)-4-methylphenyl)-3,3,3-trifluoro-2-hydroxypropanamide], which IC50 (Table A2) is on record?
Answer: The IC50 was under 100 nM.

Question: With `Cc1ccc(C(O)(C(N)=O)C(F)(F)F)cc1-c1cnc(N)c(C(=O)NCC(F)(F)F)n1` (centres unmarked) [Example 38, 3-Amino-6-(5-(3-amino-1,1,1-trifluoro-2-hydroxy-3-oxopropan-2-yl)-2-methylphenyl)-N-(2,2,2-trifluoroethyl)pyrazine-2-carboxamide trifluoroacetate] as the compound, how does the IC50 (Table A1) read?
Answer: Its IC50 is under 100 nM.

Question: For `Cc1ccc(C(O)(C(N)=O)C(F)F)cc1-c1cnc(N)c(C(=O)NCCC2CCOC2)n1` (centres unmarked) [Example 37, 3-amino-6-(5-(1-amino-3,3-difluoro-2-hydroxy-1-oxopropan-2-yl)-2-methylphenyl)-N-(2-(tetrahydrofuran-3-yl)ethyl)pyrazine-2-carboxamide], which IC50 (Table A1) is on record?
Answer: Its IC50 is under 100 nM.

Question: `CC(=O)NCC(O)(c1ccc(C)c(-c2cnc(N)c(-c3cn[nH]c3)n2)c1)C(F)(F)F` (centres unmarked) [Example 105, N-(2-(3-(5-amino-6-(1H-pyrazol-4-yl)pyrazin-2-yl)-4-methylphenyl)-3,3,3-trifluoro-2-hydroxypropyl)acetamide trifluoroacetate] was tested. Which IC50 (Table A3) did it give?
Answer: Its IC50 is under 100 nM.

Question: With `COC[C@H]1CCN1C(=O)c1nc(-c2cc(C(O)(C(N)=O)C(F)(F)F)ccc2C)cnc1N` (stereo partly drawn) [Example 26, 2-(3-(5-amino-6-((R)-2-(methoxymethyl)azetidine-1-carbonyl)pyrazin-2-yl)-4-methylphenyl)-3,3,3-trifluoro-2-hydroxypropanamide] as the compound, how does the IC50 (Table A1) read?
Answer: The IC50 was under 500 nM.

Question: With `Cc1ccc(C(O)(C(N)=O)C(F)F)cc1-c1cnc(N)c(C(=O)NC2CCOCC2)n1` (centres unmarked) [Example 36, 3-amino-6-(5-(1-amino-3,3-difluoro-2-hydroxy-1-oxopropan-2-yl)-2-methylphenyl)-N-(tetrahydro-2H-pyran-4-yl)pyrazine-2-carboxamide] as the compound, how does the IC50 (Table A1) read?
Answer: Its IC50 is under 100 nM.

Question: How did the IC50 (Table A1) turn out when `Cc1ccc(C(O)(C(N)=O)C(F)(F)F)cc1-c1cnc(N)c(C(=O)NC2CCC(F)(F)CC2)n1` (centres unmarked) [Example 6, 3-amino-6-(5-(3-amino-1,1,1-trifluoro-2-hydroxy-3-oxopropan-2-yl)-2-methylphenyl)-N-(4,4-difluorocyclohexyl)pyrazine-2-carboxamide trifluoroacetate] was run?
Answer: Its IC50 is under 100 nM.

Question: Which IC50 (Table A1) does the source give for `Cc1ccc(C(O)(C(N)=O)C(F)(F)F)cc1-c1cnc(N)c(C(=O)NCCC#N)n1` (centres unmarked) [Example 14, 3-amino-6-(5-(3-amino-1,1,1-trifluoro-2-hydroxy-3-oxopropan-2-yl)-2-methylphenyl)-N-(2-cyanoethyl)pyrazine-2-carboxamide trifluoroacetate] here?
Answer: Its IC50 is under 100 nM.

Question: With `Cc1ccc(C(O)(C(N)=O)C(F)(F)F)cc1-c1cnc(N)c(N2CCN3C(=O)CCC3C2)n1` (centres unmarked) [Example 126, 2-(3-(5-amino-6-(6-oxohexahydropyrrolo[1,2-a]pyrazin-2(1H)-yl)pyrazin-2-yl)-4-methylphenyl)-3,3,3-trifluoro-2-hydroxypropanamide trifluoroacetate] as the compound, how does the IC50 [1] read?
Answer: Its IC50 is under 100 nM.

Question: `Cc1ccc(C(O)(C(N)=O)C(F)(F)F)cc1-c1cnc(N)c(C#CC2(O)CCN(C)C2=O)n1` (centres unmarked) [Example 65, 2-(3-(5-amino-6-((3-hydroxy-1-methyl-2-oxopyrrolidin-3-yl)ethynyl)pyrazin-2-yl)-4-methylphenyl)-3,3,3-trifluoro-2-] was tested. Which IC50 (Table A2) did it give?
Answer: The IC50 was under 100 nM.

Question: How did the IC50 (Table A3) turn out when `Cc1ccc(C(O)(C(N)=O)C(F)F)cc1-c1cnc(N)c(-c2ccnn2C)n1` (centres unmarked) [Example 98, 2-(3-(5-Amino-6-(1-methyl-1H-pyrazol-5-yl)pyrazin-2-yl)-4-methylphenyl)-3,3-difluoro-2-hydroxypropanamide] was run?
Answer: The IC50 was under 100 nM.

Question: `Cc1ccc(C(O)(C(N)=O)C(F)(F)F)cc1-c1cnc(N)c(C(=O)NCC2(C#N)CCC2)n1` (centres unmarked) [Example 16, 3-amino-6-(5-(3-amino-1,1,1-trifluoro-2-hydroxy-3-oxopropan-2-yl)-2-methylphenyl)-N-((1-cyanocyclobutyl)methyl)pyrazine-2-carboxamide trifluoroacetate] was tested. Which IC50 (Table A1) did it give?
Answer: Its IC50 is under 100 nM.

Question: For `Cc1ccc(C(O)(C(N)=O)C(F)(F)F)cc1-c1cnc(N)c(C(=O)N[C@H]2CCOC2)n1` (stereo partly drawn) [Example 11, 3-amino-6-(5-(3-amino-1,1,1-trifluoro-2-hydroxy-3-oxopropan-2-yl)-2-methylphenyl)-N-((S)-tetrahydrofuran-3-yl)pyrazine-2-carboxamide trifluoroacetate], which IC50 (Table A1) is on record?
Answer: The IC50 was under 100 nM.

Question: `Cc1ccc(C(O)(C(N)=O)C(F)(F)F)cc1-c1cnc(N)c(-c2ccc(CC#N)cc2)n1` (centres unmarked) [Example 87, 2-(3-(5-amino-6-(4-(cyanomethyl)phenyl)pyrazin-2-yl)-4-methylphenyl)-3,3,3-trifluoro-2-hydroxypropanamide trifluoroacetate] was tested. Which IC50 (Table A3) did it give?
Answer: Its IC50 is under 500 nM.

Question: Which IC50 [1] does the source give for `CC(=O)N1CCN(c2nc(-c3cc(C(O)(C(N)=O)C(F)(F)F)ccc3C)cnc2N)CC1` (centres unmarked) [Example 114, 2-(3-(6-(4-acetylpiperazin-1-yl)-5-aminopyrazin-2-yl)-4-methylphenyl)-3,3,3-trifluoro-2-hydroxypropanamide trifluoroacetate] here?
Answer: The IC50 was under 100 nM.
